Test results published in BindingDB's records for patent US12110286 (Cancer Research Technology, 2024).

Molecular target: B-cell lymphoma 6 protein (Homo sapiens, UniProt P41182)
Assay: HTRF In Vitro Assay
Method: The % inhibition at each concentration was calculated by normalising FRET ratio to the appropriate high (DMSO with all reagents) and low (DMSO without BCL6) controls.

IC50: 324 nM
Structure (SMILES): Cn1c(=O)n(CCC(C)(C)O)c2cc(Nc3nc(N4CCC(Cn5cccn5)CC4)ncc3Cl)ccc21 [US12110286, Example 35zb]
